# Assay results reported in PubChem BioAssay AID1963825 (Molecular Pharmacology Branch, DTP, NCI, 2024).
# Assay: Anticancer human tumor 997537-175-T-J1-PDC patient-derived colon adenocarcinoma cell line growth inhibition [POLQ]
# Details: 997537-175-T-J1-PDC complex spheroid viability, combination with POLQ inhibitors; for IC50: curve of first compound; for viability, T/C: stronger effect = lower value
# Method in brief: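 Growth inhibition in 3D: complex spheroids (tumor PDC, HUVEC, MSC) treated with POLQ inhibitor combinations; where Cmax unknown, highest tested concentration 10 microM, except SN-38 at 1 microM.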
# [1] = second compound 0.0316 µM, first compound 0.0316 µM
# [2] = second compound 0.0316 µM, first compound 0.1 µM
# [3] = second compound 0.1 µM, first compound 0.0316 µM
# [4] = second compound 0.1 µM, first compound 0.1 µM
# [5] = second compound 0.316 µM, first compound 0.0316 µM
# [6] = second compound 0.316 µM, first compound 0.1 µM
# [7] = second compound 1 µM, first compound 0.0316 µM
# [8] = second compound 1 µM, first compound 0.1 µM
# [9] = second compound 3.16 µM, first compound 0.0316 µM
# [10] = second compound 3.16 µM, first compound 0.1 µM
# [11] = second compound 10 µM, first compound 0.0316 µM
# [12] = second compound 10 µM, first compound 0.1 µM
# 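Also: luminescence signal used as a surrogate for viable cells; spheroids exposed to drugs for seven days before readout.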
compound,measurement,setting,value
CC[C@@]1(O)C(=O)OCc2c1cc1n(c2=O)Cc2cc3c(CN(C)C)c(O)ccc3nc2-1 + COC1C(OC(N)=O)C(O)C(Oc2ccc3c(O)c(NC(=O)c4ccc(O)c(CC=C(C)C)c4)c(=O)oc3c2C)OC1(C)C,IC50,second compound 0.0316 µM,> 0.1 µM
same,IC50,second compound 0.1 µM,> 0.1 µM
same,IC50,second compound 0.316 µM,> 0.1 µM
same,IC50,second compound 1 µM,> 0.1 µM
same,IC50,second compound 3.16 µM,> 0.1 µM
same,IC50,second compound 10 µM,> 0.1 µM
same,"viability, T/C","second compound 0.0316 µM, first compound 0.000316 µM",102%
same,"viability, T/C","second compound 0.0316 µM, first compound 0.001 µM",104%
same,"viability, T/C","second compound 0.0316 µM, first compound 0.00316 µM",110%
same,"viability, T/C","second compound 0.0316 µM, first compound 0.01 µM",103%
same,"viability, T/C",[1],90.8%
same,"viability, T/C",[2],77.6%
same,"viability, T/C","second compound 0.1 µM, first compound 0.000316 µM",111%
same,"viability, T/C","second compound 0.1 µM, first compound 0.001 µM",101%
same,"viability, T/C","second compound 0.1 µM, first compound 0.00316 µM",111%
same,"viability, T/C","second compound 0.1 µM, first compound 0.01 µM",103%
same,"viability, T/C",[3],97.2%
same,"viability, T/C",[4],68.6%
same,"viability, T/C","second compound 0.316 µM, first compound 0.000316 µM",96.2%
same,"viability, T/C","second compound 0.316 µM, first compound 0.001 µM",95%
same,"viability, T/C","second compound 0.316 µM, first compound 0.00316 µM",116%
same,"viability, T/C","second compound 0.316 µM, first compound 0.01 µM",102%
same,"viability, T/C",[5],105%
same,"viability, T/C",[6],58.4%
same,"viability, T/C","second compound 1 µM, first compound 0.000316 µM",90.8%
same,"viability, T/C","second compound 1 µM, first compound 0.001 µM",92.3%
same,"viability, T/C","second compound 1 µM, first compound 0.00316 µM",99.6%
same,"viability, T/C","second compound 1 µM, first compound 0.01 µM",96.3%
same,"viability, T/C",[7],86%
same,"viability, T/C",[8],76.8%
same,"viability, T/C","second compound 3.16 µM, first compound 0.000316 µM",101%
same,"viability, T/C","second compound 3.16 µM, first compound 0.001 µM",110%
same,"viability, T/C","second compound 3.16 µM, first compound 0.00316 µM",107%
same,"viability, T/C","second compound 3.16 µM, first compound 0.01 µM",92.6%
same,"viability, T/C",[9],81.7%
same,"viability, T/C",[10],55.6%
same,"viability, T/C","second compound 10 µM, first compound 0.000316 µM",105%
same,"viability, T/C","second compound 10 µM, first compound 0.001 µM",105%
same,"viability, T/C","second compound 10 µM, first compound 0.00316 µM",107%
same,"viability, T/C","second compound 10 µM, first compound 0.01 µM",98.5%
same,"viability, T/C",[11],98.2%
same,"viability, T/C",[12],70.2%
Nc1ccn(C2OC(CO)C(O)C2(F)F)c(=O)n1 (centres undefined) + COC1C(OC(N)=O)C(O)C(Oc2ccc3c(O)c(NC(=O)c4ccc(O)c(CC=C(C)C)c4)c(=O)oc3c2C)OC1(C)C,IC50,second compound 0.0316 µM,> 10 µM
same,IC50,second compound 0.1 µM,> 10 µM
same,IC50,second compound 0.316 µM,> 10 µM
same,IC50,second compound 1 µM,> 10 µM
same,IC50,second compound 3.16 µM,> 10 µM
same,IC50,second compound 10 µM,> 10 µM
same,"viability, T/C",[1],95.8%
same,"viability, T/C",[2],108%
same,"viability, T/C","second compound 0.0316 µM, first compound 0.316 µM",79.4%
same,"viability, T/C","second compound 0.0316 µM, first compound 1 µM",85.2%
same,"viability, T/C","second compound 0.0316 µM, first compound 3.16 µM",65.8%
same,"viability, T/C","second compound 0.0316 µM, first compound 10 µM",88.2%
same,"viability, T/C",[3],108%
same,"viability, T/C",[4],106%
same,"viability, T/C","second compound 0.1 µM, first compound 0.316 µM",72.2%
same,"viability, T/C","second compound 0.1 µM, first compound 1 µM",95%
same,"viability, T/C","second compound 0.1 µM, first compound 3.16 µM",80.6%
same,"viability, T/C","second compound 0.1 µM, first compound 10 µM",74.9%
same,"viability, T/C",[5],103%
same,"viability, T/C",[6],106%
same,"viability, T/C","second compound 0.316 µM, first compound 0.316 µM",88.7%
same,"viability, T/C","second compound 0.316 µM, first compound 1 µM",78.4%
same,"viability, T/C","second compound 0.316 µM, first compound 3.16 µM",73.9%
same,"viability, T/C","second compound 0.316 µM, first compound 10 µM",66.8%
same,"viability, T/C",[7],106%
same,"viability, T/C",[8],89.9%
same,"viability, T/C","second compound 1 µM, first compound 0.316 µM",100%
same,"viability, T/C","second compound 1 µM, first compound 1 µM",76.5%
same,"viability, T/C","second compound 1 µM, first compound 3.16 µM",63.6%
same,"viability, T/C","second compound 1 µM, first compound 10 µM",70.6%
same,"viability, T/C",[9],97.9%
same,"viability, T/C",[10],97%
same,"viability, T/C","second compound 3.16 µM, first compound 0.316 µM",92.5%
same,"viability, T/C","second compound 3.16 µM, first compound 1 µM",94.6%
same,"viability, T/C","second compound 3.16 µM, first compound 3.16 µM",71.7%
same,"viability, T/C","second compound 3.16 µM, first compound 10 µM",62.7%
same,"viability, T/C",[11],84.6%
same,"viability, T/C",[12],90.8%
same,"viability, T/C","second compound 10 µM, first compound 0.316 µM",86.5%
same,"viability, T/C","second compound 10 µM, first compound 1 µM",63.7%
same,"viability, T/C","second compound 10 µM, first compound 3.16 µM",71.6%
same,"viability, T/C","second compound 10 µM, first compound 10 µM",72.3%
